Values after ≈ are worked out from the molar mass of the structure shown.
conditions: buffer; pH 7.4; 200.0 µM

SMILES	solubility kinetic [µg/mL]
CCCC(CCC(=O)Nc1cccc([N+](=O)[O-])c1)C(=O)O (stereo unspecified)	> 44.1
Cc1ccccc1NC(=O)C1CC(=O)N(Cc2ccccc2)C1 (stereo unspecified)	> 46.3
CCOc1ccc(/C=C2\SC(=S)N(C)C2=O)cc1OC	< 0.7
CC(C)[C@H](NS(=O)(=O)c1ccccc1)C(=O)OCC(=O)NC1CCCCC1	> 59.5
Cc1ccc2nc(-c3ccncc3)cc(C(=O)NCc3ccccc3F)c2c1	2.5 (≈ 6.73 µM)
COc1ccc(NC(=O)Cc2ccc(Cl)cc2Cl)cn1	33.8 (≈ 109 µM)
CCCCc1ccc(NC2=NCCCS2)cc1	26.4 (≈ 106 µM)
C1CCCN(C2CCNCC2)CC1.Cl	> 38.3
Cc1nc2sc(C(=O)OC(C)C)c(N)c2c(C)c1C	< 0.3
O=C(OCC(=O)N1CCN(C(=O)c2ccco2)CC1)c1c(Cl)cccc1Cl	> 61.7
Cc1nc2ccccc2c(=O)n1-c1ccc(Br)cn1	> 47.4
CC(C)(C)CC(C)(C)NC(=O)/C=C/C(=O)O	29.1 (≈ 128 µM)
CN1CCN(C(=O)CNC(=O)Cc2ccc(Cl)cc2)CC1	> 46.5
CC(C)(C)C(=O)Nc1cc2c3c(c1)CCC(=O)N3CCC2	40 (≈ 140 µM)
CC(=O)Nc1ccc(SCc2c(C)noc2C)cc1	> 41.5
O=C(Nc1cc(Cl)ccc1N1CCOCC1)c1ccc(=O)[nH]c1	38.1 (≈ 114 µM)
O=C1CCCC/C1=C\Nc1ccc(S(=O)(=O)Nc2cnc3ccccc3n2)cc1	15.9 (≈ 38.9 µM)
Cc1ccc(C(=O)NC(=S)Nc2ccc3[nH]c(=O)[nH]c3c2)c(C)c1	< 0.2
CC(N=Cc1c(O)c2ccccc2oc1=O)C(=O)O (stereo unspecified)	> 39.2
CC(=O)c1ccc(S(=O)(=O)N2CCN(C(C)C(=O)N(C)Cc3ccccc3)CC2)cc1 (stereo unspecified)	44 (≈ 99.2 µM)
O=C(Nc1cccc(F)c1)N1CCN(C(=O)c2ccco2)CC1	> 47.6
CSc1ncccc1C(=O)Nc1ccc2c(c1)OCCO2	15.7 (≈ 51.9 µM)

SMILES	solubility kinetic [µg/mL]
CCOc1ccc(C=NCC(O)c2ccccc2)cc1 (stereo unspecified)	37 (≈ 137 µM)
CCOC(=O)CN(C#N)c1nc(N(C)C)nc(N(C)C)n1	17.8 (≈ 60.7 µM)
O=C(Nc1ccccc1C(=O)Nc1ccccc1)c1ccco1	0.9 (≈ 2.94 µM)
CCCN1C2CCCC1CC(NC(=O)c1cccc([N+](=O)[O-])c1)C2 (stereo unspecified)	> 49.7
O=C1NC(=S)NC(=O)C1=Cc1ccc(Br)s1	44.3 (≈ 140 µM)
O=C(/C=C/Sc1ccc(C(F)(F)F)cn1)c1ccccc1	< 0.7
NC(=O)C1CCN(CC(=O)Nc2cccnc2Cl)CC1	44.1 (≈ 149 µM)
O=C(COc1ccccc1)Nc1ccncc1Cl	32.3 (≈ 123 µM)
COc1ccc(C(=O)Nc2nc(-c3ccccn3)cs2)cc1S(=O)(=O)N1CCOCC1	6.8 (≈ 14.8 µM)
CCOC(=O)NC(=O)CSc1ccc(S(=O)(=O)N2CCCCC2)cn1	> 58.1
O=C(OCC(=O)c1ccc[nH]1)c1cncc(Br)c1	24.2 (≈ 78.3 µM)
Cc1onc(-c2ccccc2)c1C(=O)N1CCN(c2ccccn2)CC1	> 52.3
COc1ccc(NC(=O)CSCc2ccc([N+](=O)[O-])cc2)cc1OC	50.1 (≈ 138 µM)
C=CCNC(=S)Nc1ccc(C)cc1[N+](=O)[O-]	> 37.7
CCOC(=O)/C(C#N)=C/C=C1\C=Cc2ccccc2N1CC	0.7 (≈ 2.38 µM)
COc1ccc(Cl)cc1NC(=O)CN(C)C(=O)/C=C/c1ccco1	> 52.3
NC(=O)N1CCc2ccccc21	> 24.3
Cc1cc(Br)ccc1NC(=O)CNC(=O)c1cnn(C)c1	> 52.7
COc1ccc(C(=O)Nc2cc(C)on2)cc1OC	26.9 (≈ 103 µM)
CC(=O)OCC(=O)Nc1ccccc1OC(F)F	> 38.9
N#Cc1cccc(NC(=O)COC(=O)C2CCC2)c1	> 38.7
Cc1ccc(C2N=C(N)Nc3nc4ccccc4n32)cc1 (stereo unspecified)	35 (≈ 126 µM)

SMILES	solubility kinetic [µg/mL]
Cc1ccc(CNC(=O)C2CC=CCC2C(=O)O)cc1 (stereo unspecified)	> 41
COc1ccc(CCNCCN2CCOCC2)cc1.Cl	24.9
COc1ccc2[nH]c(C(=O)NCCCn3ccnc3)cc2c1	> 44.8
N#Cc1ccccc1NC(=O)COC(=O)/C=C/c1ccc(S(=O)(=O)N2CCOCC2)cc1	5.7 (≈ 12.5 µM)
COc1cc(C2Nc3cccc4cccc(c34)N2)ccc1O	35.5 (≈ 121 µM)
Cc1ccc(NC(=O)c2c(-c3ccccc3Cl)noc2C)nc1	0.3 (≈ 0.915 µM)
O=C(COC(=O)/C=C/c1cccc(Cl)c1)NCc1cccs1	6.1 (≈ 18.2 µM)
O=C(CN1C(=O)COc2ccccc21)NCCCN1CCOCC1	> 50
CCOc1ccccc1NC(=O)Cn1c(=O)oc2ccccc21	25.2 (≈ 80.7 µM)
COc1ccc(NC(=O)CN2CCCCC2)cc1S(=O)(=O)N1CCCCC1.O=C(O)C(=O)O	> 72.8
COc1ccc(CCNC(=O)c2cnc(Cl)c(Cl)c2)cc1	2.4 (≈ 7.38 µM)
COCCSc1ncnc2c1oc1nc3c(cc12)COC(C)(C)C3	43 (≈ 124 µM)
Brc1ccc(-c2cnco2)cc1	2.2 (≈ 9.82 µM)
Cc1ccc2c(CC(=O)N3CCN(c4ccccc4)CC3)coc2c1	8.1 (≈ 24.2 µM)
CC(C)CNC(=S)NC(=O)c1csc([N+](=O)[O-])c1	2.8 (≈ 9.74 µM)
C=CCNc1nc(NCc2ccccc2)nc(OCC)n1	36.6 (≈ 128 µM)
CC1(C2CC(C(F)(F)F)n3nc(C(=O)O)cc3N2)CC1 (stereo unspecified)	> 43.4
Cc1ccc(OCC(=O)NC(C)c2ccccc2)cc1 (stereo unspecified)	> 40.4
CCCCNS(=O)(=O)c1cc2c3c(c1)CCN3C(=O)CC2	44.3 (≈ 144 µM)
CCCN1CCC[C@H](c2cccc(O)c2)C1.Cl	> 38.4
CCCc1cc(=O)[nH]c(SCC(=O)N2CCCCCC2)n1	> 46.4
CCOC1OC(=O)C(Cl)=C1Nc1ccc(C)cc1 (stereo unspecified)	> 40.2

SMILES	solubility kinetic [µg/mL]
COc1ccc(C(=O)c2nc3ccccc3n2C(C)C)cc1OC	46.1 (≈ 142 µM)
Cc1cc2cccc(C)c2nc1SCC(=O)NC1CCCCC1	< 0.4
CCC1CN(C(=O)NCc2ccc(C)cc2)c2cc(C)ccc2O1 (stereo unspecified)	0.5 (≈ 1.54 µM)
CC1CCCC(C)N1C(=O)COC(=O)CNC(=O)c1ccccc1F (stereo unspecified)	> 52.6
CC(C)(C)c1ccc(Oc2ccc(NC(=O)c3cccs3)cn2)cc1	1.3 (≈ 3.69 µM)
CCCCC(=O)NCc1ccccc1Cl	> 33.9
Cc1cc(C)c(/C=C(\C#N)S(=O)(=O)c2ccccc2)[nH]1	0.5 (≈ 1.75 µM)
Cc1nc(N2CCCCC2)c2c(-c3cccs3)csc2n1	2.3 (≈ 7.29 µM)
CCSC1=NCCN1C(=O)Cc1ccc(-c2ccccc2)cc1	3.3 (≈ 10.2 µM)
COc1ccc(CN2CCc3c([nH]c4ccccc34)C2)c(OC)c1C	35.2 (≈ 105 µM)
O=C(CC(Nc1ccccc1)c1ccccc1)C1CC1 (stereo unspecified)	< 0.6
COc1ccc(C2c3c(noc3C)CC(C)(O)C2C(C)=O)cc1 (stereo unspecified)	> 47.3
CC(=O)c1ccc(NC(=O)c2cc(=O)[nH]c3ccccc23)cc1	2 (≈ 6.53 µM)
Cc1ccc(F)cc1NC(=O)CCOc1ccccc1	8.3 (≈ 30.4 µM)
COc1cccc(CN2CC=C(c3ccc(F)cc3)CC2)c1	10.3 (≈ 34.6 µM)
CCCC(=O)Nc1ccc2oc(-c3cncc(Br)c3)nc2c1	0.6 (≈ 1.67 µM)
COCCCNC(=S)N1CCC(C(=O)c2ccc(Cl)cc2)CC1	> 53.2
CC(C)c1ccc(C(O)c2nc3ccccc3n2C)cc1 (stereo unspecified)	10.3 (≈ 36.7 µM)
CCCCN(C(=O)C1CC(=O)N(c2ccc3c(c2)OCCO3)C1)c1c(N)n(CCC)c(=O)[nH]c1=O (stereo unspecified)	> 72.8
COc1ccc(C(=O)NCC(=O)OCC(=O)NCc2ccc3c(c2)OCO3)cc1	> 60.1
